Each structure is given as a SMILES string.

The test system of series [1] is A549 (non-small cell lung carcinoma) cells. The series can be described thus: MTT cytotoxicity assay, A549 monolayer. Conditions: exposure time 96 h, mean ± SD. In kind it is cell-based, human. The method in brief:
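Monolayer cells seeded at 1 × 10^3 (CH1/PA-1), 2 × 10^3 (SW480), 3 × 10^3 (A549) or 7 × 10^3 (IMR-90) per well, preincubated 24 h, then exposed to serially diluted drug for 96 h. Viability by MTT (4 h), absorbance 550 nm (690 nm reference); IC50 interpolated from concentration-effect curves relative to untreated controls, ≥3 independent experiments.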
(In general: Tetrazolium assays rely on reduction of a dye to a coloured formazan, in cell work by metabolically active cells.)

The test system of series [2] is HT29 cells. The series can be described thus: Resazurin assay, HT29 2D monolayer. In kind it is cell-based, human. To be noted: 96 h. As for the experimental part: CH1/PA-1 (ovarian teratocarcinoma), SW480 (colon carcinoma) and A549 (non-small cell lung cancer) cells were maintained as described in the reference. IMR-90 human fetal lung fibroblasts (from the European Collection of Authenticated Cell Cultures, Porton Down, Salisbury, UK) were cultured in Stable Cell^TM DMEM/F12 supplemented with 0.01 mg/mL human recombinant insulin (both purchased from Sigma-Aldrich) and 10% fetal bovine serum (FBS, BioWest, Nuaillé, France). Human colon carcinoma cell lines HCT116 and HT29 (both kindly provided by the Institute of Cancer Research, Department of Medicine I, Medical University of Vienna, Austria) were cultured in McCoy’s 5a medium supplemented with 4 mM L-glutamine (both purchased from Sigma-Aldrich) and 10% FBS. MCF-7 human breast adenocarcinoma cells (kindly provided by M. Ogris, Department of Pharmaceutical Sciences, University of Vienna, Austria) were maintained in DMEM (high glucose) supplemented with 4 mM L-glutamine, 0.1 mg/mL human insulin (all purchased from Sigma-Aldrich) and 10% FBS. All cell lines were grown as monolayers in 75 cm^2 culture flasks (CytoOne, Starlab, Hamburg, Germany) at 37 °C in a humidified atmosphere containing 5% CO2.
For the resazurin assay in monolayer cultures, cells were seeded into 96-well microculture plates (CytoOne, tissue culture treated, Starlab, Hamburg, Germany) in densities of 2 × 10^3 HCT116, 2 × 10^3 HT29 and 4 × 10^3 MCF-7 cells per well (each in 100 µL). For tests in 3D cultures, spheroids were grown as described above. After 24 h (for monolayers) or 4 days (for spheroids) the test compounds in the appropriate medium were added in serial dilution to the plates to obtain a total volume of 200 µL/well. Wells without cells, containing medium and resazurin (Alfa Aesar, Thermo Fisher, Kandel, Germany) solution were used as blanks. After 96 h exposure 20 µL of the resazurin solution (440 µM) were added to each well, followed by a 4 h (2D) or 12 h (3D) incubation period. Resorufin fluorescence was quantified at 530 nm (and a reference wavelength of 620 nm) by using a microplate reader (Synergy HT, BioTek) with Gen5^TM 3.10 software (BioTek).

A short description of series [3]: Cyclic voltammetry in MeCN (W(IV) to W(V)). In kind it is physicochemical. To be noted: vs. NHE, scan rate 200 mV/s. As for the experimental part: NMR spectra were recorded with a Bruker FT-NMR Avance III^TM 500 MHz spectrometer at 500.10 (^1H), and 125.75 MHz (^13C) using DMSO–d6. 2D-NMR measurements were recorded utilizing standard pulse programs COSY, HSQC and HMBC. The Microanalytical Laboratory of the University of Vienna performed the elemental analyses with a Eurovector EA 3000(2009) equipped with a high temperature pyrolysis furnace (HT, Hekatech, Germany, 2009). Elemental analyses’ samples were weighed (weights from 1–3 mg were used) on a Sartorius SEC 2 ultra-micro balance with ±0.1 µg resolution. Two NIST-certified reference materials were used for calibration: sulfanilamide (C6H8N2O2S) and BBOT (2,5-bis-(5-tert-butyl-2-benzoxazol-2-yl)-thiophenone, C26H26N2O2S). The limit of quantification (LOQ) was 0.05 w% for C, H, N and 0.02 w% for S. For samples without N and/or S, the content of these elements was determined and verified to be below the LOQ. X-ray diffraction analyses were carried out on a Bruker X8 APEX II CCD diffractometer at 100 K. ESI-MS were recorded on a Bruker AmaZon SL ion trap mass spectrometer (Bruker Daltonics GmbH). Data were obtained and processed with Compass 1.3 and Data Analysis 4.0 (Bruker Daltonics GmbH). Infrared spectra were attained on a Bruker Vertex 70 FT-IR-spectrometer with an ATR-unit (attenuated total reflection unit) in the range of 4000–600 cm^−1. Intensities of the reported bands are described with w for weak, m for medium and s for strong; broad signals are additionally specified with the letter b in front of these abbreviations. Cyclic voltammograms (CVs) were measured in a three-electrode cell using 2 mm diameter glassy carbon disk working electrode, a platinum auxiliary electrode and an Ag|Ag^+ reference electrode containing 0.1 M AgNO3. Measurements were carried out at room temperature using an EG&G PARC potentiostat/galvanostat 273A. The solutions were deoxygenized by purging a stream of argon for 3 min through the solution and the experiment was performed under an argon atmosphere. The potentials were measured in a freshly prepared solution of (n Bu4N)[BF4] (0.1 M) in acetonitrile using ferrocene (Fe(η^5-C5H5)2) (E1/2 = +0.72 V vs. NHE) as an internal standard and are quoted relative to the normal hydrogen electrode (NHE).
The electrochemical behavior of all complexes and the precursor Cp2WCl2 was studied by cyclic voltammetry with a scan rate of 200 mV/s, from −0.5 to +1.2 or +1.5 V. Measurements were performed in triplicate. Due to low water solubility of compounds 1–10 acetonitrile (MeCN) was utilized in order to reach the 2 mM concentration.

In series [4] the test system is HT29 cells. The experiment in a line: Annexin V-FITC/PI apoptosis assay, HT29. To be noted: HT29, 24 h, 200 µM; for ∑apoptotic cells [%]: sum of early and late.

As to `CCc1occc(=O)c1[O-].F[P-](F)(F)(F)(F)F.[W+4].c1cc[cH-]c1.c1cc[cH-]c1` [Compound 9, Bis(η^5-cyclopentadienyl)[2-ethyl-3-(oxo-κO)-4-(1H)-pyran-4-ato-κO] tungsten(IV) hexafluorophosphate], the IC50 (as a rule, the concentration that inhibits the measured activity by half) in series [1] was greater than 200 µM. Also, the IC50 in series [2] is greater than 200 µM. The compound further registered an E1/2 in series [3] of 1.038 V. In series [4], the “early apoptotic cells [%] AV+ / PI-” value worked out at 0.9 ± 0.6%, the “late apoptotic cells [%] AV+ / PI+” value came to 3.9 ± 4.5%, the “necrotic cells [%] AV- / PI+” value was found to be 2.3 ± 1.3% and the “viable cells [%] AV- / PI-” value worked out at 92.9 ± 5.8%. The “∑apoptotic cells [%]” value in series [4] worked out at 4.8%.
Consider `CCc1occc(=S)c1[O-].F[P-](F)(F)(F)(F)F.[W+4].c1cc[cH-]c1.c1cc[cH-]c1` [Compound 10, Bis(η^5-cyclopentadienyl)[2-ethyl-3-(oxo-κO)-4-(1H)-pyran-4-thionato-κS] tungsten(IV) hexafluorophosphate], for which, in series [1], half-maximal inhibition (IC50) was put at 53 ± 8 µM. For the same compound, the IC50 in series [2] turned out to be 54 ± 2 µM. Besides, the E1/2 in series [3] came to 1.064 V. In series [4], the “early apoptotic cells [%] AV+ / PI-” value was determined as 3.1 ± 2.8%, the “late apoptotic cells [%] AV+ / PI+” value was 5.1 ± 5.2%, the “necrotic cells [%] AV- / PI+” value was 2.3 ± 0.9% and the “viable cells [%] AV- / PI-” value is recorded as 89.5 ± 8.5%. Further, in series [4], the “∑apoptotic cells [%]” value came out at 8.2%.

For the origin of these results see article PMC10384408, “Anticancer Tungstenocenes with a Diverse Set of (O,O–), (O,S–) and (O,N–) Chelates—A Detailed Biological Study Using an Improved Evaluation via 3D Spheroid Models” (Pharmaceutics, 2023).
